Earlier results on one compound are cited in patent US10190039B2, “Synthetic acid compositions alternatives to conventional acids in the oil and gas industry” (priority 2014, dated 2019).

The conditions of this series: death in 2-3 minutes.

For the compound `Cl` [hydrogen chloride gas, hydrogen chloride], the “Level at which death can occur” value is on record as 1300-2000 ppm.
